Reference: ChEMBL document CHEMBL2424520, “Screening and evaluation of small organic molecules as ClpB inhibitors and potential antimicrobials” (J Med Chem, 2013)
pIC50, pKd: −log10 of the molar value. Converted amounts (≈) assume the structure as drawn. The source made the active and inactive calls. The calls are words filed in the database; no cut-off is given here.

Columns and labels:
[1] = test system: Escherichia coli; test: Antibacterial activity against Escherichia coli BL21(DE3) assessed as growth inhibition at 37 degC after 24 hrs by two-fold dilution method; type: functional
[2] = Inhibition of DNAK/CLPB (unknown origin) assessed as reactivation of malate dehydrogenase aggregates after 2 hrs in presence of Tween 80
[3] = Inhibition of DNAK/CLPB (unknown origin) assessed as reactivation of malate dehydrogenase aggregates after 2 hrs
[4] = Binding affinity to CLPB (unknown origin) expressed in Escherichia coli MC4100 assessed as change in melting temperature at 100 to 200 uM after 30 mins by DSF analysis in presence of ADP
[5] = Inhibition of DNAK (unknown origin) assessed as reactivation of luciferase aggregates after 2 hrs in presence of Tween 80
[6] = Binding affinity to CLPB (unknown origin) expressed in Escherichia coli MC4100 assessed as change in melting temperature at 100 to 200 uM after 30 mins by DSF analysis
[7] = Effect on ATPase activity of CLPB (unknown origin) expressed in Escherichia coli MC4100 at 1 to 100 uM by spectrophotometric analysis
[8] = Binding affinity to CLPB (unknown origin) expressed in Escherichia coli MC4100 assessed as change in melting temperature at 100 to 200 uM after 30 mins by DSF analysis in presence of ATP
[9] = Effect on ATPase activity of CLPB (unknown origin) expressed in Escherichia coli MC4100 using alpha-casein as substrate at 1 to 100 uM by spectrophotometric analysis
[10] = Binding affinity to CLPB (unknown origin) expressed in Escherichia coli MC4100 assessed as change in melting temperature at 100 to 200 uM after 30 mins by DSF analysis in presence of ATPgammaS
[11] = Inhibition of DNAK (unknown origin) assessed as reactivation of luciferase aggregates after 2 hrs
[12] = Activation of CLPB (unknown origin) expressed in Escherichia coli MC4100 using alpha-casein as substrate at 1 to 100 uM by spectrophotometric analysis
[13] = Activation of CLPB (unknown origin) expressed in Escherichia coli MC4100 at 1 to 100 uM by spectrophotometric analysis
[14] = Reduction of ATPase activity of DNAK (unknown origin) using ALLQSRLLLSAPRRAAATARY as substrate at 100 uM by spectrophotometric analysis relative to control in presence of cochaperone GrpE
[15] = Binding affinity to CLPB E276A/E678A mutant (unknown origin)-alpha-casein complex expressed in Escherichia coli MC4100 at 0.1 to 1000 uM by titrimetric analysis
[16] = test system: Escherichia coli; test: Antibacterial activity against CLPB-deleted Escherichia coli MC4100 assessed as reduction of CFU count at 300 uM at 37 degC after 24 hrs by two-fold dilution method in presence of paraquat; type: functional, organism-based
[17] = Binding affinity to CLPB E276A/E678A mutant (unknown origin) expressed in Escherichia coli MC4100 assessed as change in melting temperature by DSF analysis
[18] = test system: Escherichia coli; test: Antibacterial activity against CLPB-deleted Escherichia coli MC4100 assessed as reduction of CFU count at 300 uM at 37 degC after 24 hrs by two-fold dilution method; type: functional, organism-based
[19] = test system: Escherichia coli; test: Antibacterial activity against Escherichia coli MC4100 assessed as reduction of CFU count at 300 uM at 42 degC after 24 hrs by two-fold dilution method; type: functional
[20] = Reduction of ATPase activity of DNAK (unknown origin) at 100 uM by spectrophotometric analysis
[21] = Reduction of ATPase activity of DNAK (unknown origin) using ALLQSRLLLSAPRRAAATARY as substrate at 100 uM by spectrophotometric analysis relative to control in presence of cochaperone DnaJ
[22] = Effect on ATPase activity of DNAK (unknown origin) using ALLQSRLLLSAPRRAAATARY as substrate at 100 uM by spectrofluorimetric analysis
[23] = Inhibition of ATPase activity of CLPB (unknown origin) expressed in Escherichia coli MC4100 using 10 uM alpha-casein as substrate at 1 to 100 uM by spectrophotometric analysis
[24] = test system: Escherichia coli; test: Antibacterial activity against TolC-deleted Escherichia coli JLS1015 at 37 to 47 degC after 7 hrs by two-fold dilution method; type: functional; details: JLS1015, 7 h
[25] = Binding affinity to CLPB hexamer (unknown origin) expressed in Escherichia coli MC4100 at 100 uM by sedimentation equilibrium analysis
[26] = test system: Escherichia coli; test: Antibacterial activity against Escherichia coli BL21(DE3) assessed as growth inhibition at 0.1 to 1000 uM at 37 to 47 degC after 24 hrs by two-fold dilution method in presence of paraquat; type: functional
[27] = Binding affinity to CLPB E276A/E678A mutant (unknown origin) expressed in Escherichia coli MC4100 at 80 uM in presence of alpha-casein by spectrofluorimetric analysis
[28] = Cytotoxicity against CHO cells assessed as cell viability at 40 to 100 uM after 72 hrs by tetrazolium reduction assay relative to control; type: cell-based, Cricetulus griseus; details: chinese hamster, read-out: Activity
[29] = Inhibition of ATPase activity of CLPB (unknown origin) expressed in Escherichia coli MC4100 using 20 to 100 uM alpha-casein as substrate at 1 to 100 uM by spectrophotometric analysis
[30] = test system: Escherichia coli; test: Antibacterial activity against CLPB-deleted Escherichia coli MC4100 assessed as growth inhibition at 0.1 to 1000 uM at 37 to 47 degC after 24 hrs by two-fold dilution method in presence of paraquat; type: functional, organism-based
[31] = test system: Escherichia coli; test: Antibacterial activity against Escherichia coli MC4100 assessed as reduction of CFU count at 300 uM at 37 degC after 24 hrs by two-fold dilution method in presence of paraquat; type: functional
[32] = test system: Escherichia coli; test: Antibacterial activity against Escherichia coli MC4100 assessed as growth inhibition at 37 degC after 24 hrs by two-fold dilution method; type: functional, organism-based
[33] = test system: Escherichia coli; test: Antibacterial activity against Escherichia coli MC4100 assessed as growth inhibition at 0.1 to 1000 uM at 37 to 47 degC after 24 hrs by two-fold dilution method in presence of paraquat; type: functional, organism-based
[34] = test system: Escherichia coli; test: Antibacterial activity against Escherichia coli BL21(DE3) assessed as growth inhibition at 42 degC after 24 hrs by two-fold dilution method in presence of paraquat; type: functional
[35] = Binding affinity to CLPB (unknown origin) expressed in Escherichia coli MC4100 up to 400 seconds by surface plasmon resonance analysis
[36] = test system: Escherichia coli; test: Antibacterial activity against Escherichia coli MC4100 assessed as growth inhibition at 42 degC after 24 hrs by two-fold dilution method in presence of paraquat; type: functional; details: MC4100, 24 h
[37] = test system: Escherichia coli; test: Antibacterial activity against CLPB-deleted Escherichia coli MC4100 assessed as growth inhibition at 37 degC after 24 hrs by two-fold dilution method; type: functional, organism-based
[38] = Cytotoxicity against human HeLa cells assessed as cell viability at 40 to 100 uM after 72 hrs by tetrazolium reduction assay relative to control; type: cell-based; details: read-out: Activity

`CC1(C)S[C@@H]2[C@H](NC(=O)[C@H](N)c3ccccc3)C(=O)N2[C@H]1C(=O)O` [AMPICILLIN] showed an MIC [1] of 2 µM (≈ 0.699 µg/mL).

With `C=CCN1C(=O)C(=C2C(=O)Nc3ccccc32)SC1=S` the pIC50 [2] was less than 4.00, the pIC50 [3] was less than 4.00 and the ΔTm [4] was 7.6 °C. The pIC50 [5] was less than 4.00, the ΔTm [6] was 9 °C and the Activity [7] was “inactive”. For the same compound, the ΔTm [8] was 7.9 °C, the Activity [9] was “inactive” and the ΔTm [10] was 5.4 °C. The pIC50 [11] was less than 4.00.

`COCCCN1C(=O)C(=C2C(=O)Nc3ccc(Br)cc32)SC1=S` showed a pIC50 [3] of less than 4.00, a ΔTm [4] of 9.4 °C and a ΔTm [6] of 8.4 °C. For the same compound, the Activity [7] was “inactive”, the ΔTm [8] was 13.1 °C and the Activity [9] was “inactive”. It also gave a ΔTm [10] of 14.3 °C.

With `COc1cc(/C=C2/C(=O)NN(c3ccc(Cl)cc3)C2=O)ccc1OCc1ccc(F)cc1` the Activity [12] was “Active”, the pIC50 [2] was 4.96 and the pIC50 [3] was 5.12. The ΔTm [4] was 0.7 °C, the Activity [13] was “Active” and the pIC50 [5] was less than 4.00. The ΔTm [6] was 1 °C, the ΔTm [8] was 1.2 °C and the ΔTm [10] was 7.1 °C. It also gave a pIC50 [11] of less than 4.00.

With `O=Cc1cc(Cc2ccccc2Cl)cc([N+](=O)[O-])c1O` the fold change (FC) [14] was 7, the pIC50 [2] was 5.22 and the Activity [15] was “Active”. The pIC50 [3] was 5.15, the Activity [16] was “inactive” and the pKd [17] was 4.92. For the same compound, the Activity [18] was “inactive”, the log10cfu [19] was 2 and the Activity [20] was “Active”. For the same compound, the fold change (FC) [21] was 7, the Activity [22] was “inactive” and the inhibition [23] was “Active”. For the same compound, the ΔTm [4] was 6.7 °C, the MIC [24] was 5 µM (≈ 1.46 µg/mL) and the Activity [25] was “Active”. For the same compound, the “growth inhibition (GI)” value [26] was “Active”, the Activity [27] was “Active” and the viability at 72 h, up to 100 µM [28] was 50%. For the same compound, the inhibition [29] was “Active”, the pIC50 [5] was 5.22 and the “growth inhibition (GI)” value [30] was “inactive”. The log10cfu [31] was 2, the ΔTm [6] was 8.1 °C and the “growth inhibition (GI)” value [32] was “Active”. The “growth inhibition (GI)” value [33] was “Active”, the MIC [34] was 60 µM and the pKd [35] was 4.89. For the same compound, the ΔTm [8] was 7.2 °C, the MIC [36] was 60 µM and the “growth inhibition (GI)” value [37] was “Active”. It also gave a ΔTm [10] of 4.9 °C, a viability at 72 h, up to 100 µM [38] of 50% and a pIC50 [11] of 5.40.

In the case of `O=C1Nc2ccc([N+](=O)[O-])cc2/C1=C1\SC(=O)N(c2ccc(Cl)cc2)C1=O`, the Activity [12] was “Active”, the pIC50 [2] was 5.22 and the pIC50 [3] was 5.00. The Activity [13] was “Active”, the pIC50 [5] was 4.22 and the ΔTm [6] was greater than 40 °C. It also gave a ΔTm [10] of 12.3 °C and a pIC50 [11] of 4.40.
